The text below walks through data of US9579314B2 (priority 2015, dated 2017).

Each structure is given as a SMILES string. Bounds are passed on as bounds.

One assay addresses Human M3 receptor (Homo sapiens, UniProt P20309). The note with it: read-out: M3 binding affinity.
The next assay deals with Human β2 adrenoceptor (Homo sapiens, UniProt P07550). The note with it: read-out: B2 binding affinity.
Human β2 adrenoceptor, sequence (P07550 whole entry): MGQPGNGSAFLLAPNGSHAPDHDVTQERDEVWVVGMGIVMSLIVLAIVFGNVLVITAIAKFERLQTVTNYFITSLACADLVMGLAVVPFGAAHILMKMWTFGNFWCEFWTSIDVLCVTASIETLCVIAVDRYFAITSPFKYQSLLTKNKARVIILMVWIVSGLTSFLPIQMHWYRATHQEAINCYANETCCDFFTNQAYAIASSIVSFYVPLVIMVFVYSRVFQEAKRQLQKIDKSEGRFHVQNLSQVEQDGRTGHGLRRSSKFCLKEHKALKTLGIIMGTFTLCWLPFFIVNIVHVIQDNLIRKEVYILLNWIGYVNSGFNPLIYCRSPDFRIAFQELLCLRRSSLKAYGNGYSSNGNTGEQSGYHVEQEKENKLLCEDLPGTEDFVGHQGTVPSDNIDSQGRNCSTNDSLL

Human M3 receptor, sequence (P20309 whole entry): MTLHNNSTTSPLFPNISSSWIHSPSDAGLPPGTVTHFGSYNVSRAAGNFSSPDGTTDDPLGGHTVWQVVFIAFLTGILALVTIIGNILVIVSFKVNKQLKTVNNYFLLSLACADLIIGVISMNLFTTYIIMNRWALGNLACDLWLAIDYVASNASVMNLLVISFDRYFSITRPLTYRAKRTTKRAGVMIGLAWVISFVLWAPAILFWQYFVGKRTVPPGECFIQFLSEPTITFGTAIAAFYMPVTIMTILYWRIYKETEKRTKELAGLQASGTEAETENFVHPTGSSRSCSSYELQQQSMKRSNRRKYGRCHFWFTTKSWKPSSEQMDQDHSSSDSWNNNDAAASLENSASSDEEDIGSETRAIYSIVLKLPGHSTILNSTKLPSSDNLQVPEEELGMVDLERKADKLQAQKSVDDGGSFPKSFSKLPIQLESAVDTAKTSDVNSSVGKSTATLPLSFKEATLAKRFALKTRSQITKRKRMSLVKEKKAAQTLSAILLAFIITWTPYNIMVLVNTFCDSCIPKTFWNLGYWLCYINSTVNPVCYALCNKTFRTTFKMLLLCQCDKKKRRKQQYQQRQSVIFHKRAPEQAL

For `O=C(COc1cccc([C@](O)(C(=O)OCC2CCN(Cc3ccccc3)CC2)c2ccccc2)c1)N[C@H]1C[C@H](NC(=O)c2ccc(CNC[C@H](O)c3ccc(O)c4[nH]c(=O)ccc34)c(C(F)(F)F)c2)C1` [Compound 138, (1-benzylpiperidin-4-yl)methyl (S)-2-hydroxy-2-(3-(2-(((1R,3S)-3-(4-((((R)-2-hydroxy-2-(8-hydroxy-2-oxo-1,2-dihydroquinolin-5-yl)ethyl)amino)methyl)-3-(trifluoromethyl)benzamido)cyclobutyl)amino)-2-oxoethoxy)phenyl)-2-phenylacetate], the IC50 at Human M3 receptor and on Human β2 adrenoceptor was 0.3 to 3 nM in each case.
For the compound `O=C(COc1cccc([C@](O)(C(=O)OCC2CCN(Cc3ccccc3)CC2)c2ccccc2)c1)N1CCC(CNC[C@H](O)c2ccc(O)c3[nH]c(=O)ccc23)CC1` [Compound 36, (S)-(1-benzylpiperidin-4-yl)methyl 2-hydroxy-2-(3-(2-(4-((((R)-2-hydroxy-2-(8-hydroxy-2-oxo-1,2-dihydroquinolin-5-yl)ethyl)amino)methyl)piperidin-1-yl)-2-oxoethoxy)phenyl)-2-phenylacetate], the IC50 on Human M3 receptor and at Human β2 adrenoceptor was under 0.3 nM in each case.
For `O=C(NCC1CCN(C(=O)COc2cccc([C@](O)(C(=O)OCC3CCN(Cc4ccccc4)CC3)c3ccccc3)c2)CC1)c1ccc(CNC[C@H](O)c2ccc(O)c3[nH]c(=O)ccc23)cc1` [Compound 61, (1-benzylpiperidin-4-yl)methyl (S)-2-hydroxy-2-(3-(2-(4-((4-((((R)-2-hydroxy-2-(8-hydroxy-2-oxo-1,2-dihydroquinolin-5-yl)ethyl)amino)methyl)benzamido)methyl)piperidin-1-yl)-2-oxoethoxy)phenyl)-2-phenylacetate], the IC50 on Human M3 receptor is 0.3 to 3 nM; on Human β2 adrenoceptor, under 0.3 nM.
The matching figures for `O=C(NCCN(Cc1ccccc1)C(=O)COc1cccc([C@](O)(C(=O)OCC2CCN(Cc3ccccc3)CC2)c2ccccc2)c1)c1ccc(CCNC[C@H](O)c2ccc(O)c3[nH]c(=O)ccc23)cc1` [Compound 87, (1-benzylpiperidin-4-yl)methyl (S)-2-(3-(2-(benzyl(2-(4-(2-(((R)-2-hydroxy-2-(8-hydroxy-2-oxo-1,2-dihydroquinolin-5-yl)ethyl)amino)ethyl)benzamido)ethyl)amino)-2-oxoethoxy)phenyl)-2-hydroxy-2-phenylacetate]: 0.3 to 3 nM and 0.3 to 3 nM.
In the case of `O=C(NCCCNC(=O)c1ccc(CNC[C@H](O)c2ccc(O)c3[nH]c(=O)ccc23)cc1)Nc1cccc(C(O)(C(=O)OCC2CCN(Cc3ccccc3)CC2)c2ccccc2)c1` (stereo partly drawn) [Compound 56, (1-benzylpiperidin-4-yl)methyl 2-hydroxy-2-(3-(3-(3-(4-((((R)-2-hydroxy-2-(8-hydroxy-2-oxo-1,2-dihydroquinolin-5-yl)ethyl)amino)methyl)benzamido)-propyl)ureido)phenyl)-2-phenylacetate diformate], the IC50 on Human M3 receptor and at Human β2 adrenoceptor was over 3 nM each time.
In the case of `O=C(c1ccc(CNC[C@H](O)c2ccc(O)c3[nH]c(=O)ccc23)cc1)N1C[C@H]2CCN(C(=O)COc3cccc([C@](O)(C(=O)OCC4CCN(Cc5ccccc5)CC4)c4ccccc4)c3)[C@H]2C1` [Compound 74, (1-benzylpiperidin-4-yl)methyl (S)-2-hydroxy-2-(3-(2-((3aR,6aR)-5-(4-((((R)-2-hydroxy-2-(8-hydroxy-2-oxo-1,2-dihydroquinolin-5-yl)ethyl)amino)methyl)benzoyl)hexahydropyrrolo[3,4-b]pyrrol-1(2H)-yl)-2-oxoethoxy)phenyl)-2-phenylacetate], the IC50 at Human M3 receptor and on Human β2 adrenoceptor was 0.3 to 3 nM each time.
As for `O=C(COc1cccc([C@](O)(C(=O)OCC2CCN(Cc3ccccc3)CC2)c2ccccc2)c1)N1CC2(CCN(C(=O)c3ccc(CCNC[C@H](O)c4ccc(O)c5[nH]c(=O)ccc45)cc3)CC2)C1` [Compound 94, (1-benzylpiperidin-4-yl)methyl (S)-2-hydroxy-2-(3-(2-(7-(4-(2-(((R)-2-hydroxy-2-(8-hydroxy-2-oxo-1,2-dihydroquinolin-5-yl)ethyl)amino)ethyl)benzoyl)-2,7-diazaspiro[3.5]nonan-2-yl)-2-oxoethoxy)phenyl)-2-phenylacetate], the IC50 at Human M3 receptor and on Human β2 adrenoceptor was under 0.3 nM throughout.
Consider `O=C(COc1cccc([C@](O)(C(=O)OCC2CCN(Cc3ccccc3)CC2)c2ccccc2)c1)N[C@H]1CC[C@H](NC(=O)c2ccc(CCNC[C@H](O)c3ccc(O)c4[nH]c(=O)ccc34)cc2)CC1` [Compound 90, (1-benzylpiperidin-4-yl)methyl (S)-2-hydroxy-2-(3-(2-(((1R,4S)-4-(4-(2-(((R)-2-hydroxy-2-(8-hydroxy-2-oxo-1,2-dihydroquinolin-5-yl)ethyl)amino)ethyl)benzamido)cyclohexyl)amino)-2-oxoethoxy)phenyl)-2-phenylacetate], for which the IC50 at Human M3 receptor and at Human β2 adrenoceptor was 0.3 to 3 nM in each case.
As to `CCOc1cc(C(=O)NCCCOc2cccc([C@](O)(C(=O)OCC3CCN(Cc4ccccc4)CC3)c3ccccc3)c2)ccc1CNC[C@H](O)c1ccc(O)c2[nH]c(=O)ccc12` [Compound 32D, (S)-(1-benzylpiperidin-4-yl)methyl 2-(3-(3-(3-ethoxy-4-((((R)-2-hydroxy-2-(8-hydroxy-2-oxo-1,2-dihydroquinolin-5-yl)ethyl)amino)methyl)benzamido)propoxy)phenyl)-2-hydroxy-2-phenylacetate], the IC50 was 0.3 to 3 nM on Human M3 receptor and under 0.3 nM at Human β2 adrenoceptor.
On to `O=C(COc1cccc([C@](O)(C(=O)OCC2CCN(Cc3ccccc3)CC2)c2ccccc2)c1)NC1CN(C(=O)c2ccc(CCNC[C@H](O)c3ccc(O)c4[nH]c(=O)ccc34)cc2)C1` [Compound 101, (1-benzylpiperidin-4-yl)methyl (S)-2-hydroxy-2-(3-(2-((1-(4-(2-(((R)-2-hydroxy-2-(8-hydroxy-2-oxo-1,2-dihydroquinolin-5-yl)ethyl)amino)ethyl)benzoyl)azetidin-3-yl)amino)-2-oxoethoxy)phenyl)-2-phenylacetate], for which the IC50 at Human M3 receptor and on Human β2 adrenoceptor was under 0.3 nM in each case.
With `Cc1ccccc1C(O)(C(=O)OCC1CCN(Cc2ccccc2)CC1)c1cccc(OCCCCCNC[C@H](O)c2ccc(O)c3[nH]c(=O)ccc23)c1` (stereo partly drawn) [Compound 7, (1-benzylpiperidin-4-yl)methyl 2-hydroxy-2-(3-((5-(((R)-2-hydroxy-2-(8-hydroxy-2-oxo-1,2-dihydroquinolin-5-yl)ethyl)amino)pentyl)oxy)phenyl)-2-(o-tolyl)acetate], the IC50 on Human M3 receptor was over 3 nM; on Human β2 adrenoceptor it was 0.3 to 3 nM.
The matching figures for `COc1cc(C(=O)NCCCOc2cccc([C@](O)(C(=O)OCC3CCN(Cc4ccccc4)CC3)c3ccccc3)c2)ccc1CNC[C@H](O)c1ccc(O)c2[nH]c(=O)ccc12` [Compound 32A, (S)-(1-benzylpiperidin-4-yl)methyl 2-hydroxy-2-(3-(3-(4-((((R)-2-hydroxy-2-(8-hydroxy-2-oxo-1,2-dihydroquinolin-5-yl)ethyl)amino)methyl)-3-methoxybenzamido)propoxy)phenyl)-2-phenylacetate]: 0.3 to 3 nM and under 0.3 nM.
